Data: article PMC1924862, “X-ray structures of Na-GST-1 and Na-GST-2 two glutathione s-transferase from the human hookworm Necator americanus” (BMC Structural Biology, 2007)
pIC50: −log10 of the molar value. Where two headings read alike, the source gives them in different places.

Tests used:
Na-GST-1 = target: T1, Na-GST-1 (Necator americanus, UniProt D3U1A5); test: CDNB-glutathione conjugation, absorbance at […] nm; assay type: biochemical
T1 construct: 206 residues ordered; homodimer; Nu class
T1 sequence (D3U1A5 1-206): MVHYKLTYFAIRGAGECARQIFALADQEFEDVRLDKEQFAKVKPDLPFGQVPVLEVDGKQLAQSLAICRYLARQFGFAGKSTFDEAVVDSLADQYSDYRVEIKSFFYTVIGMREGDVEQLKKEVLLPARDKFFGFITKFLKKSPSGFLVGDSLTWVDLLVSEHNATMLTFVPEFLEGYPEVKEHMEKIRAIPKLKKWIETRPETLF

Na-GST-2 = target: T2, Na-GST-2 (Necator americanus, UniProt D3U1A6); test: CDNB-glutathione conjugation, absorbance at […] nm; assay type: biochemical
T2 construct: homodimer; Nu class; glutathione carried over from fermentation
T2 sequence (D3U1A6 1-206): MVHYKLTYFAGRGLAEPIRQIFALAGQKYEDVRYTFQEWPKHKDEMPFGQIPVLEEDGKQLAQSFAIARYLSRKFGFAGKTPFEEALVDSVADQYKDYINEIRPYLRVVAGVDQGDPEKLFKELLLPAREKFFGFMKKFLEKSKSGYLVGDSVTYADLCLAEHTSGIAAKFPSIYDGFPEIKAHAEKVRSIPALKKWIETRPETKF

Row | Compound | pIC50 (Na-GST-1; read-out: Na-GST-1) | pIC50 (Na-GST-2) | pIC50 (Na-GST-1)
1 | O=C(C1CCCCC1)N1CC(=O)N2CCc3ccccc3C2C1 (stereo not drawn) [praziquantel] | < 1.70 | 2.48 | 
2 | [Cl][Sn]([c]1ccccc1)([c]1ccccc1)[c]1ccccc1 [chlorotriphenyltin] |  | 6.15 | 4.66
3 | CCCSc1ccc2nc(NC(=O)OC)[nH]c2c1 [albendazole] | 4.06 | 4.17 | 
